This note sets out measurements from article PMC11901676, “Substrate Selectivities of GH78 α-L-Rhamnosidases from Human Gut Bacteria on Dietary Flavonoid Glycosides” (Molecules, 2025).

Holding throughout (test): HPLC initial rates, Michaelis-Menten fit
For data set [1], the system named is T1, HFM-RhaC.
T1 construct: recombinant in E. coli BL21(DE3), Ni-NTA purified
In kind it is biochemical, metagenome: human feces. The note with it: 50 mM sodium phosphate pH 6.0, 37 °C, 5 min. The source says: HPLC initial rates, Michaelis-Menten fit on HFM-RhaC

Data set [2] deals with T2, HFM-Rha78.
T2 construct: recombinant in E. coli BL21(DE3), Ni-NTA purified
Type of data set: biochemical, metagenome: human feces. The note with it: 50 mM sodium phosphate pH 6.5, 37 °C, 5 min. The source says:
HPLC initial rates, Michaelis-Menten fit on HFM-Rha78

Data set [3] relates to T3, HFM-RhaA.
T3 construct: recombinant in E. coli BL21(DE3), Ni-NTA purified; catalytic residues Glu448 (acid) and Glu715 (base); AlphaFold2 model said to be in UniProt
Type of data set: biochemical, metagenome: human feces. Particulars: 50 mM sodium phosphate pH 6.0, 37 °C, 5 min. An excerpt:
HPLC initial rates, Michaelis-Menten fit on HFM-RhaA

Substrate in data set [4]: COc1ccc([C@@H]2CC(=O)c3c(O)cc(O[C@@H]4O[C@H](CO[C@@H]5O[C@@H](C)[C@H](O)[C@@H](O)[C@H]5O)[C@@H](O)[C@H](O)[C@H]4O)cc3O2)cc1O
In kind it is biochemical, Bacteroides thetaiotaomicron. The note with it: 50 mM sodium phosphate pH 6.5, 37 °C, 5 min. An excerpt:
(§1) HPLC initial rates, Michaelis-Menten fit on BtRha78A

Substrate in data set [5]: C[C@@H]1O[C@@H](OC[C@H]2O[C@@H](Oc3c(-c4ccc(O)c(O)c4)oc4cc(O)cc(O)c4c3=O)[C@H](O)[C@@H](O)[C@@H]2O)[C@H](O)[C@H](O)[C@H]1O
In kind it is biochemical, Bacteroides thetaiotaomicron. The note with it: 50 mM sodium phosphate pH 6.5, 37 °C, 5 min.
From the text: as §1

As usually defined, the Km is the concentration of substrate that gives half-maximal velocity. Take `COc1ccc([C@@H]2CC(=O)c3c(O)cc(O[C@@H]4O[C@H](CO[C@@H]5O[C@@H](C)[C@H](O)[C@@H](O)[C@H]5O)[C@@H](O)[C@H](O)[C@H]4O)cc3O2)cc1O` [Hesperidin]: the Km in data set [1] came out at 2160 µM.
For `C[C@@H]1O[C@@H](O[C@H]2[C@H](Oc3cc(O)c4c(c3)O[C@H](c3ccc(O)cc3)CC4=O)O[C@H](CO)[C@@H](O)[C@@H]2O)[C@H](O)[C@H](O)[C@H]1O` [Naringin], the Michaelis-Menten constant (Km) in data set [2] is 5970 µM; in data set [3], 1920 µM; in data set [1] it was 2290 µM.
For `COc1ccc([C@@H]2CC(=O)c3c(O)cc(O[C@@H]4O[C@H](CO)[C@@H](O)[C@H](O)[C@H]4O[C@@H]4O[C@@H](C)[C@H](O)[C@@H](O)[C@H]4O)cc3O2)cc1O` [Neohesperidin], the Km in data set [2] is 3970 µM; in data set [3], 530 µM; in data set [1], 3250 µM.
For the molecule `C[C@@H]1O[C@@H](OC[C@H]2O[C@@H](Oc3c(-c4ccc(O)c(O)c4)oc4cc(O)cc(O)c4c3=O)[C@H](O)[C@@H](O)[C@@H]2O)[C@H](O)[C@H](O)[C@H]1O` [Rutin], the Michaelis constant (Km) stood at 1240 µM in data set [3] and 5050 µM in data set [1].

B1: BtRha78A (Bacteroides thetaiotaomicron VPI-5482) (protein)
chain: MILLGALSLASSTFAQTWIWYPGDYEIWLGNQMNNRRTERGAFFPPFWKTDSHYVVVEFSKVLNLSEPEEVFIAAEGTYNVKLDGKLQFGMPETLLLPAGKHSLNIKVWNQATPPTIYVKGKTVNSDSSWRVTYEDKEWIDESGKASDTSATIYMDAGCWNFDGATQRPSQFSLMREPQQPVAKTEQPEGGILYDFGKETFGFITLKNLSGKGKIDLYYGESPEEAKDKAYCETLDKLLLEPGQITDLAIRSTSPLHHSDNEYTLENSKAFRYVYITHEPEVQIGEVSMQYEYLPEEYRGNFRCNDEELNCIWEVGAYTMHLTTREFFIDGIKRDRWVWSGDAIQSYLMNYYLFFDSESVKRTIWLLRGKDPVTSHSNTIMDYTFYWFLSVYDYYMYSGDRHFVNQLYPRMQTMMDYVLGRTNKNGMVEGMSGDWVFVDWADGYLDKKGELSFEQVLFCRSLETMALCADLVGDKDGQQKYEKLASALKAKLEPTFWNNQKQAFVHNCVDGRQSDAVTRYANMFSVFFDYLNADKQQAIKQSVLLNDEILKITTPYMRFYELEALCALGEQETVMKEMKAYWGGMLKAGATSFWEKYNPEESGTQHLAMYGRPYGKSLCHAWGASPIYLLGKYYLGVKPTKEGYKEFAVSPVLGGLKWMEGTVPTPNGDIHVYMDNKTIKVKATEGKGYLTIQSRRQPKANMGTVEKVSEGVWRLWIDSPEERIVTYRL
notes: recombinant in E. coli BL21(DE3), Ni-NTA purified
A word on the kcat: it is the maximal rate divided by the concentration of active sites. In general, kcat/Km refers to the second-order rate constant that governs catalysis at low substrate concentration. For the molecule B1, in data set [4], the Km came out at 2780 µM, the catalytic constant (kcat) is 8.73 s⁻¹ and the catalytic efficiency (kcat/Km) amounted to 3140 M⁻¹ s⁻¹. For the same molecule, in data set [5], the Michaelis-Menten constant (Km) turned out to be 2380 µM, the kcat amounted to 0.47 s⁻¹ and the specificity constant (kcat/Km) was 200 M⁻¹ s⁻¹.
